Consider five compounds from article PMC10052025 (Pharmaceutics, 2023).

Converted amounts (≈) assume the structure as drawn. Where two headings read alike, the source gives them in different places.

One series deals with OATP1B1/3. To be noted: humans, cited from earlier work.
Series [1] addresses T1, OATP1B1 (Homo sapiens, UniProt Q9Y6L6).
T1 sequence (Q9Y6L6 1-691): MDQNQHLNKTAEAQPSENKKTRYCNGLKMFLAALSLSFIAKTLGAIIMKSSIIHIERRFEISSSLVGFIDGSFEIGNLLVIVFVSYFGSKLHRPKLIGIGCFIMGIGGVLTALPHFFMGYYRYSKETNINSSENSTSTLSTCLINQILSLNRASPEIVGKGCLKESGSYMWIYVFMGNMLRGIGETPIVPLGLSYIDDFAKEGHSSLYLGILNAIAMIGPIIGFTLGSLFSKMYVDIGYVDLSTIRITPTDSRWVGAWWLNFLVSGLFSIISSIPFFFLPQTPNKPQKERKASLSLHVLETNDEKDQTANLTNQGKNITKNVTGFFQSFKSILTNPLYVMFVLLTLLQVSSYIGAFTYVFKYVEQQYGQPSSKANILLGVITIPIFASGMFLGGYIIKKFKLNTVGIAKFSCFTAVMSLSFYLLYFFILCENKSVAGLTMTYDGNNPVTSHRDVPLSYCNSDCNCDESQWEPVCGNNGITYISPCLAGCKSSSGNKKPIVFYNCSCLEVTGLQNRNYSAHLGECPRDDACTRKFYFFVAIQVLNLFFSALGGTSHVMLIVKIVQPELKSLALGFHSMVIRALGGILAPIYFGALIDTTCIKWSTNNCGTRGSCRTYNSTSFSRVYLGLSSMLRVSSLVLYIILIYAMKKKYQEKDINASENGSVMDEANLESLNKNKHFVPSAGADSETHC
Details: FLAG; expressed in transfected cells. Conditions: cited from earlier work.

Series [2] addresses T1, OATP1B1. Put plainly: cell-based. To be noted: for OATP1B1-mediated transport after preincubation: washed, substrate without inhibitor; for IC50: [3H]-E217βG 1 µM, 2 min. The method, then:
(§1) HEK293 stable cell lines expressing FLAG-tagged OATP1B1 (HEK293-FLAG-OATP1B1) or FLAG-tagged OATP1B3 (HEK293-FLAG-OATP1B3) have been published previously. Both HEK293 stable cell lines were cultured in DMEM culture media supplemented with 9% FBS (abbreviated as FBS–DMEM), antibiotic antimycotic, and 600 µg/mL G418 as published previously.
(§2) HEK293-FLAG-OATP1B1 and HEK293-FLAG-OATP1B3 cells (less than 40 passages) were seeded in poly-L-lysine coated 24-well plates at a density of 1.5 × 10^5 cells per well and allowed to grow for 48 h until confluent before the transport studies. [^3H]-E217βG (1 µM, 2 min) and [^3H]-CCK-8 (1 µM, 3 min) were used as substrates for OATP1B1 and OATP1B3 in HEK293-FLAG-OATP1B1 and HEK293-FLAG-OATP1B3 cells, respectively. […] After preincubation, cells were washed three times with HBSS buffer and incubated with HBSS buffer containing substrate, in the […] of vehicle control or inhibitor. […] At the end of substrate incubation, cells were washed three times with ice-cold HBSS buffer and lysed in PBS containing 0.5% Triton X-100. Liquid scintillation counting was determined and normalized to the protein concentration, after correcting for any nonspecific binding in the poly-L-lysine-coated blank plates, as published previously.
(§3) (1) E=Bottom+Top−Bottom/(1+C/IC50) where E is the remaining substrate transport at a given inhibitor concentration (C).

For series [3], the target named is T2, OATP1B3 (Homo sapiens, UniProt Q9NPD5).
T2 sequence (Q9NPD5 1-702): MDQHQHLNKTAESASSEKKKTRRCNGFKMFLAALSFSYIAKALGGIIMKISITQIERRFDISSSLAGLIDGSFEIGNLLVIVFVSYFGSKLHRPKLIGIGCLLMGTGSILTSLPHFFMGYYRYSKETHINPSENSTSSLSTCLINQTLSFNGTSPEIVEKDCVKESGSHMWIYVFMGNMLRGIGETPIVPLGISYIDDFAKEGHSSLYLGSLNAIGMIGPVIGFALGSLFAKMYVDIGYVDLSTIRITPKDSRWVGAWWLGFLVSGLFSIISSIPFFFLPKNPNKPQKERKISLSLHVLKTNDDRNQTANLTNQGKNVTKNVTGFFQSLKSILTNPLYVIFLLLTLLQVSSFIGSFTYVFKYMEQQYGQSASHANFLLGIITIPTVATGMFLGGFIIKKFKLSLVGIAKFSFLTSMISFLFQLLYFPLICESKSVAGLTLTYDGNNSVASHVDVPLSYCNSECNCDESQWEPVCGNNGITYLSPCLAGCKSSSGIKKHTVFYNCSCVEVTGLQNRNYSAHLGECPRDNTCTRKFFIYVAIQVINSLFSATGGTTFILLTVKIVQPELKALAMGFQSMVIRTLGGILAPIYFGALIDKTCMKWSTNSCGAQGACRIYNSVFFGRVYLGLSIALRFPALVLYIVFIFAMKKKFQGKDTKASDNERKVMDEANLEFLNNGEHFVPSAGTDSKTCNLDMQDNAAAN
As to the kind of experiment: Prediction of OATP1B3-mediated DDI using the static R-value model. Also on record: FLAG; expressed in transfected cells. Conditions: predicted AUC ratio. The method, then: (§4) The R-value, which represents the predicted AUC ratio of the substrate drug in the presence versus absence of an inhibitor drug, was calculated based on Equation (2), following the US-FDA final guidance with the parameters summarized in Table 1.
(§5) The fa is the fraction absorbed. […] Fg is the fraction that escaped gut metabolism (Fg). The ka is the absorption rate constant. […] Qh is the hepatic blood flow rate (1500 mL/min). RB is the blood-to-plasma concentration ratio. […] (3) Iin,max=Imax+faFg×ka×Dose/Qh×RB

Series [4] is described as follows: Maximum aqueous soluble concentration. Type of series: physicochemical. Conditions: aqueous solution (not further specified).
Series [5] is described as follows: Nicardipine pharmacokinetic parameters for R-value determination. Conditions: Estimated based on Equation (3).
Protocol: The fa is the fraction absorbed. […] Fg is the fraction that escaped gut metabolism (Fg). The ka is the absorption rate constant. […] Qh is the hepatic blood flow rate (1500 mL/min) [32]. RB is the blood-to-plasma concentration ratio. […] RB of 0.63 was used as a worst-case scenario.
The conditions of series [6]: human plasma; cited from earlier work.
Series [7] deals with T1, OATP1B1. As to the kind of experiment: Prediction of OATP1B1-mediated DDI using the static R-value model. Details: FLAG; expressed in transfected cells. Conditions: predicted AUC ratio. The protocol: as §4, §5
Series [8] concerns the target T2, OATP1B3. The protocol:
as §1, §2, §3

The conditions of series [9]: steady state, read-out: Cmax, plasma, cited from earlier work.
The subject of series [10] is OATP1B1 c. 521CC genotype. Conditions: subjects with OATP1B1 c. 521CC genotype; cited from earlier work.
Setting [11] is: from co-incubation IC50, FBS-DMEM.
Where [12] appears, read: from pre + co-incubation IC50, HBSS.
The mark [13] stands for this setting: from pre + co-incubation IC50, FBS-DMEM.

With `COCC(=O)O[C@]1(CCN(C)CCCc2nc3ccccc3[nH]2)CCc2cc(F)ccc2[C@@H]1C(C)C` [Mibefradil, mibefradil], the “AUC Ratio” value in the series on OATP1B1/3 (AUC of atorvastatin on coadministration, ref 10 in text, ref 8 in Table 3) is given as 4.43; with OATP1B1/3 (AUC of pravastatin on coadministration of mibefradil), 1.32.
As to `COC(=O)C1=C(C)NC(C)=C(C(=O)OCC(C)C)C1c1ccccc1[N+](=O)[O-]` (stereo not drawn) [Nisoldipine, nisoldipine], in the series on OATP1B1/3 (AUC of telmisartan on coadministration), the “AUC Ratio” value is 2.32.
Consider `CCOC(=O)C1=C(COCCN)NC(C)=C(C(=O)OC)C1c1ccccc1Cl` (stereo not drawn) [amlodipine], for which, at OATP1B1 [1] (IC50 determined without inhibitor-preincubation step), the “predicted DDI potential based on IC50 values against OATP1B1” value was “no DDI potential”.
Take `COC(=O)C1=C(C)NC(C)=C(C(=O)OCCN(C)Cc2ccccc2)C1c1cccc([N+](=O)[O-])c1` (stereo not drawn) [nicardipine]: the “effect of preincubation on OATP1B1-mediated transport” value on OATP1B1 [2] (0.5 µM, 10 min preincubation in HBSS buffer) is given as “no effect”; at OATP1B1 [2] (0.5 µM, any preincubation duration (10 min–1 h) in FBS-containing medium), “no effect”; on OATP1B1 [2] (2 and 4 µM, HBSS buffer and FBS-containing medium, all preincubation time points), “significantly reduced”. The “OATP1B1-mediated transport after preincubation” value is 0.78 ± 0.04 fold of the control on OATP1B1 [2] (0.5 µM, 30 min preincubation in HBSS buffer) and 0.82 ± 0.04 fold of the control on OATP1B1 [2] (0.5 µM, 1 h preincubation in HBSS buffer). Besides, the IC50 on OATP1B1 [2] (IC50, Co-incubation only (no preincubation), FBS-DMEM row) worked out at 2.8 ± 2.44 µM; on OATP1B1 [2] (IC50, Co-incubation only (no preincubation), HBSS row) it was 3.55 ± 2.46 µM; at OATP1B1 [2] (IC50, Pre + co-incubation, 30 min preincubation in FBS-DMEM (9% FBS)), 1.57 ± 1.4 µM; on OATP1B1 [2] (IC50, Pre + co-incubation, 30 min preincubation in protein-free HBSS buffer) it was 0.98 ± 0.26 µM. Besides, the “R (20 mg)” value on OATP1B3 [3] (setting [11]) was 1.0; on OATP1B3 [3] (from co-incubation IC50, HBSS) it was 1.0; on OATP1B3 [3] (setting [12]) it was 1.1; at OATP1B1 [7] (setting [11]), 1.1; at OATP1B1 [7] (from co-incubation IC50, HBSS), 1.1; at OATP1B1 [7] (setting [13]), 1.1. Besides, the “R (20 mg)” value on OATP1B1 [7] (setting [12]) was 1.2. Moreover, the “R (30 mg)” value at OATP1B3 [3] (from co-incubation IC50, HBSS) was 1.0; on OATP1B3 [3] (setting [12]), 1.2; at OATP1B1 [7] (setting [11]) it was 1.1; on OATP1B1 [7] (from co-incubation IC50, HBSS) it was 1.1; at OATP1B1 [7] (setting [13]) it was 1.2; at OATP1B1 [7] (setting [12]), 1.3. In addition, the “R (40 mg)” value on OATP1B3 [3] (from co-incubation IC50, HBSS) was 1.0; at OATP1B3 [3] (setting [12]) it was 1.3; at OATP1B1 [7] (setting [11]) it was 1.2; on OATP1B1 [7] (from co-incubation IC50, HBSS), 1.1; at OATP1B1 [7] (setting [13]), 1.3; at OATP1B1 [7] (setting [12]), 1.4. In addition, the solubility in [4] came out at 4 µM (≈ 1.92 µg/mL). Further, the “Iin, max (estimated total maximum plasma concentration at the inlet to the liver)” value in series [5] was 8.46 µM. Moreover, in series [6], the “fu (Fraction unbound in the plasma)” value is 0.05 [29]. For the same compound, the “inhibition of OATP1B1-mediated transport” value at OATP1B1 [1] (20 µM) was 65%. Also, the “effect of preincubation on OATP1B3-mediated transport” value at OATP1B3 [8] (0.5 µM, any treatment condition) is listed as “did not significantly affect”; on OATP1B3 [8] (FBS-containing medium, 4 µM for 30 min and 2 or 4 µM for 1 h), “small, yet significant, reductions”. For the same compound, the results for the Cmax in series [9] (20 mg 3 times a day), in series [9] (30 mg 3 times a day) and in series [9] (40 mg 3 times a day) were 70 nM, 170 nM and 260 nM, respectively.
As for `CC[C@H](C)C(=O)O[C@H]1C[C@H](O)C=C2C=C[C@H](C)[C@H](CC[C@@H](O)C[C@@H](O)CC(=O)O)[C@H]21` [pravastatin], the “increased AUC, fold of the reference” value in [10] is 1.9 fold.

As usually defined, the IC50 is the concentration that inhibits the measured activity by half. Usually solubility stands for how much of the substance goes into solution per volume. By Cmax is commonly meant the highest concentration seen after dosing.
